Laboratory results as given in US20120022121A1, “INDOLES, DERIVATIVES AND ANALOGS THEREOF AND USES THEREFOR” (priority 2007, published 2012).
Read-outs that look alike come from different tables or passages of the source.

Legend:
[1] = test system: MDR cell lines with high levels of P-gp, MRP1, MRP2, or BCRP; assay: Cytotoxicity assay using MDR cell lines; format: cell-based, human; conditions: MRP1, MRP2, BCRP over-expressing cells
Source text: (§1) MTT (3-(4,5-dimethylthiazol-2-yl)-2,5-diphenyltetrazolium bromide) assay was also used for the leukemia cell lines. […] Cells were stained with SRB solution or MTT solution.
Since ABC transporters are thought to be one of the major causes of MDR of anticancer drugs, the antitumoral efficacy of 68 was compared with other anticancer drugs in a cytotoxicity assay using MDR cell lines with high levels of P-gp, MRP1, MRP2, or BCRP (Table 1). […] In contrast, the cytotoxicity efficacy of 68 against cancer cells was unaltered by the MDR phenotypes.

LNCaP = assay: Growth inhibition assay (SRB, 96 h); format: cell-based; conditions: Homo sapiens
Source text: as §1

DU-145 = assay: Growth inhibition assay (SRB, 96 h); format: cell-based; conditions: Homo sapiens, DU-145, 96 h
Source text: as §1

PPC-1 = assay: Growth inhibition assay (SRB, 96 h); format: cell-based; conditions: Homo sapiens, PPC-1, 96 h
Source text: as §1

K562 = assay: Growth inhibition assay (MTT, 96 h); format: cell-based; conditions: Homo sapiens, K562 (parental)
Source text: as §1

HT-29 = assay: Cell viability SRB assay, 96 h; format: cell-based; conditions: Homo sapiens, HT-29, 96 h
Summary of the method: (§2)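 Cells seeded at 800–5,000/well in medium with 10% FBS and exposed to compound at 0–100 μM (DMSO <0.5%) in quadruplicate. Incubation 96 h at 37 °C, 5% CO2. Viability read by sulforhodamine B staining.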

MCF-7 = assay: Cell viability SRB assay, 96 h; format: cell-based; conditions: Homo sapiens, MCF7; MCF-7, 96 h
Summary of the method: as §2

[2] = Plasma pharmacokinetics in mice; format: in vivo; conditions: for bioavailability: read-out: absolute bioavailability
Description: A single dose (10 mg/kg) and various routes of administration (intravenous, oral, and subcutaneous) were used in order to approximate its in vivo disposition and interpret the results of subchronic toxicity studies and forthcoming in vivo xenograft studies. Diindole 13 was administered to groups (n=60) of mice for each route of administration. Mice (n=5 per time point) were sacrificed at up to twelve different time points (pre-dose and up to 24 h post-dose), and plasma samples were stored at −80° C. until HPLC analysis. An HPLC/UV analytical method was developed and validated to determine diindole 13 concentrations in plasma, with a linear range of 0.02 to 20 μg/mL and intra- and inter-day coefficients of variation at all concentrations less than 6%.

LNCaP and PC-3 cells = assay: Anti-histone ELISA for apoptosis; format: cell-based, human; conditions: 100 nM; LNCaP 24 h, PC-3 48 h
Description: Cell viability (LNCaP, PC-3 prostate, DU145, PPC-1, and TSU-Pr1 prostate cancer cell lines, HT-29 colon cancer cell line, and MCF-7 breast cancer cell line) was quantitated using the sulforhodamine B (SRB) assay after 96 h coincubation with different concentrations of compound in 96-well plates. Cell viability of leukemia cells (K562 and doxorubicin-resistant K562/Dox) was quantitated by MTT assay after 96 h coincubation with different concentrations of compound in 96-well plates. Drug-induced apoptosis was determined by anti-histone ELISA assay and DNA laddering. Cell cycle progression was assessed by propidium iodide staining and fluorescence-activated cell sorting (FACS) analysis. In vitro tubulin polymerization assay was determined by CytoDYNAMIX ScreenTM3 (CDS-03) kits according to the manufacturer's instructions. Anti-apoptosis protein (Bcl-2 and Bcl-xl) and pro-apoptosis protein (Bax) were examined in LNCaP and PC-3 after 24 h incubation with different concentrations of compound 13 by Western blot assay. In vivo PC-3 xenograft studies were conducted by i.v. dosing of 50 mg/kg, 100 mg/kg and 150 mg/kg for 2 weeks.
100 nM of compound 13 was incubated with LNCaP for 24 h and PC-3 for 48 h. […] The results are expressed as enrichment factor (Enrichment factor=OD of treated cells/OD from control cells). […]

LNCaP cells = assay: Cell cycle distribution (PI staining, FACS); format: cell-based, human; conditions: LNCaP cells, 0, 50, 100 and 200 nM, 24 h
Description: LNCaP cells were treated with 0, 50, 100 and 200 nM of compound 13 for 24 h (FIG. 11A). Cells were then harvested and fixed with 70% ethanol. Cell cycle distribution was determined by propidium iodide (P1) staining and analyzed by fluorescence-activated cell sorting (FACS) analysis.

PC-3 cells = assay: Indirect immunofluorescence microscopy of microtubules; format: cell-based, human; conditions: 24 h, anti-α-tubulin-FITC
Description: PC-3 cells were plated on poly-D-lysine coated glass cover slips in 6-well plates (5×10^4 cells/well) the day before treatment. After cells were incubated with cytotoxic agents at 37° C. for 24 h, cells were fixed on the cover slips with 4% formaldehyde in PBS for 10 min and permeabilized by 2% Triton-X in PBS for 5 min at rt. Fixed cells were blocked with 3% bovine serum albumin in TBST for 30 min and incubated with anti-α-tubulin-FITC antibody (1:100 dilution) at 4° C. overnight. Cover slips were mounted on slides using mounting medium with 4′,6-diamidino-2-phenylindole (DAPI), followed by microscopic analysis with a Zeiss Axioplan 2 fluorescent microscope (Carl Zeiss, Thornwood, N.Y.). Images were acquired with a Zeiss Axiocam HRc, using Zeiss AxioVision.

[3] = mouse, plasma, iv, 10 mg/kg, I.V.
[4] = mouse, plasma, po, 10 mg/kg, P.O.
[5] = mouse, plasma, sc, 10 mg/kg, S.C.

**Q.** For `COc1cc(C(=O)c2cccc(-c3cc4ccccc4[nH]3)c2)cc(OC)c1OC` [Compound 68, [3-(1H-Indol-2-yl)-phenyl]-(3,4,5-trimethoxy-phenyl)-methanone], which “cytotoxicity efficacy against cancer cells with MDR phenotypes” value [1] is on record?
**A.** unaltered

**Q.** And the IC50 (LNCaP)?
**A.** 30.9 ± 3.5 nM

**Q.** And the IC50 (DU-145)?
**A.** 22.8 ± 4.1 nM

**Q.** And the IC50 (PPC-1)?
**A.** 18.7 ± 1.5 nM

**Q.** And the IC50 (K562)?
**A.** 23.6 ± 2.4 nM

**Q.** Which results are given for `O=C(c1cccc(-c2cc3ccccc3[nH]2)c1)c1cc2ccccc2[nH]1` [Compound 13, (1H-indol-2-yl)-[3-(1H-indol-2-yl)phenyl]methanone]?
**A.** IC50 (HT-29): 62 nM; IC50 (MCF-7): 162 nM; metabolism (LC/MS/MS analysis of metabolites) [2]: extensive oxidative metabolism with subsequent sulfation; volume of distribution relative to total body water (0.6 L/kg) [2]: about 10 fold; F ([2]; 10 mg/kg, I.V.): 1.00; CL ([2]; 10 mg/kg, P.O.): 238 mL/min/kg; F ([2]; 10 mg/kg, P.O.): 0.20; CL ([2]; 10 mg/kg, S.C.): 95 mL/min/kg; F ([2]; 10 mg/kg, S.C.): 0.73; drug excreted unchanged in urine and feces ([2]; after intravenous administration): less than 5%; hepatic extraction ([2]; from clearance and hepatic blood flow […]): exceeding 0.75; bioavailability ([2]; mouse, plasma, 10 mg/kg, oral (P.O.)): 29%; AUC [2, 3]: 2410 ng·h/mL; Cmax [2, 3]: 2860 ng/mL; Tmax [2, 3]: 0.08 h; clearance [2, 3]: ~66.7 mL/min/kg; half-life [2, 3]: < 3 h; Vd ([2]; mouse, plasma, iv, 10 mg/kg, I.V., read-out: Vss): 6.35 L/kg; AUC [2, 4]: 690 ng·h/mL; Cmax [2, 4]: 120 ng/mL; Tmax [2, 4]: ~3 h; half-life [2, 4]: 2.97 h; AUC [2, 5]: 1770 ng·h/mL; Cmax [2, 5]: 310 ng/mL; Tmax [2, 5]: ~3 h; half-life [2, 5]: 4.52 h; bioavailability ([2]; mouse, plasma, sc, 10 mg/kg, subcutaneous (S.C.)): 73%; apoptosis by anti-histone ELISA (LNCaP and PC-3 cells): detected apoptosis; cell cycle arrest (LNCaP cells): induces G2/M phase arrest

**Q.** For `CC[C@]1(O)C[C@@H]2CN(CCc3c([nH]c4ccccc34)[C@@](C(=O)OC)(c3cc4c(cc3OC)N(C)[C@H]3[C@@](O)(C(=O)OC)[C@H](OC(C)=O)[C@]5(CC)C=CCN6CC[C@]43[C@@H]65)C2)C1` [Vinblastine], which “microtubule changes by immunofluorescence” value (PC-3 cells) is on record?
**A.** short microtubules
